Experimental findings from ChEMBL document CHEMBL3085760, “Novel polyamine analogues: from substrates towards potential inhibitors of monoamine oxidases” (Eur J Med Chem, 2013) are described below.

In test [1] the target is T1, Amine oxidase [copper-containing] 3 (Homo sapiens) (UniProt Q16853).
T1 sequence (whole entry): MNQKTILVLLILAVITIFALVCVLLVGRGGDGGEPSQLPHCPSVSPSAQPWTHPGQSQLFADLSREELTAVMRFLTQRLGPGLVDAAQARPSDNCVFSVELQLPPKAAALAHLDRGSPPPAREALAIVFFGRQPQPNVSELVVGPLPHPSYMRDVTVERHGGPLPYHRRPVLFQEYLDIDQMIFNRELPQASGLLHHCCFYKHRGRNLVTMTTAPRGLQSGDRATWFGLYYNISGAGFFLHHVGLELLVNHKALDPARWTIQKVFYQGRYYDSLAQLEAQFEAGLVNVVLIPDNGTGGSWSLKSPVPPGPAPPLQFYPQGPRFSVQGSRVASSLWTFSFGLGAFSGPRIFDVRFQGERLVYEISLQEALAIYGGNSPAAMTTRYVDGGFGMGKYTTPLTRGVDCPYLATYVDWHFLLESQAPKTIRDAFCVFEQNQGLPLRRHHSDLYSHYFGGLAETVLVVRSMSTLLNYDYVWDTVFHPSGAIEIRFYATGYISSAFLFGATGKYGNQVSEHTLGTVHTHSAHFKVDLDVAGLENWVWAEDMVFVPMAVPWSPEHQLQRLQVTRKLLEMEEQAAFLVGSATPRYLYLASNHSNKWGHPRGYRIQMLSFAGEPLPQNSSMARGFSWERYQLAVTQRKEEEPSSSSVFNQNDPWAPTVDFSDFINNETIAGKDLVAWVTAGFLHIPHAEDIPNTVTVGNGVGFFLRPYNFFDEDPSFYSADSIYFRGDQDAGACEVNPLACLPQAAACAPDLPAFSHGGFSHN
Kind of test: Ratio of relative Vmax to Km for recombinant human VAP-1 assessed as hydrogen peroxide generation rate preincubated for 30 mins by Amplex Red assay relative to control.

The target of test [2] is T1, Amine oxidase [copper-containing] 3 (Homo sapiens). Kind of test: Activity at recombinant human VAP-1 assessed as hydrogen peroxide generation rate per min/mg preincubated for 30 mins by Amplex Red assay relative to control.
The species entered for test [3] is Homo sapiens. Kind of test: Selectivity ratio of Ki for recombinant human MAO-B to Ki for recombinant human MAO-A.
Test [4] deals with T1, Amine oxidase [copper-containing] 3 (Homo sapiens). Kind of test: Ratio of relative Vmax to Km for recombinant human VAP-1 assessed as hydrogen peroxide generation rate using benzylamine as substrate at 200 uM preincubated for 30 mins by Amplex Red assay.
For test [5] the target is unchanged. Kind of test: Activity at recombinant human VAP-1 assessed as hydrogen peroxide generation rate per min/mg using benzylamine as substrate at 200 uM preincubated for 30 mins by Amplex Red assay relative to control.
For test [6] the target is unchanged. Kind of test: Activity at recombinant human VAP-1 assessed as hydrogen peroxide generation rate preincubated for 30 mins by Amplex Red assay.
The species entered for test [7] is Homo sapiens. In words: Selectivity ratio of Ki for recombinant human MAO-A to Ki for recombinant human MAO-B.

Calls of active or inactive are those of the source. No cut-off for these calls is given here.

On to `NCCCCCCCCCCCCNCc1ccccc1`, for which the fold change (FC) was 80 in test [1] and 1.88 in test [2].

`NCCCNCCCCNCCCNCc1ccccc1`: the Ratio Ki in the test filed under Homo sapiens [3] is 1.7. Moreover, the values for the fold change (FC) in test [4] and in test [5] were 0.66 and 0.77, respectively.

For the compound `NCCCCCCCCCCCCNCc1cccs1`, the fold change (FC) in test [1] came to 35; in test [2], 1.77.

Consider `CN(CCCCCCCCCCCCN=C=S)Cc1ccccc1`, for which the Ratio Ki in the test listed under Homo sapiens [3] came to 1.8. Moreover, the fold change (FC) is 0.66 in test [4] and 0.69 in test [5].

`NCCCNCCCCNCCCNCc1ccc2ccccc2c1`: in test [6], the result was inactive. Moreover, the fold change (FC) is 0.97 in test [4] and 1.12 in test [5].

Consider `NCCCNCCCCNCCCNCc1cccnc1`, for which the result in test [6] was inactive. The fold change (FC) is 0.69 in test [4] and 0.85 in test [5].

With `CN(CCCCCCCCCCCCN)Cc1ccccc1`, the fold change (FC) in test [1] stood at 30; in test [2], 0.73.

In the case of `NCCCNCCCCNCCCN`, the figures for the fold change (FC) in test [4] and in test [5] were 0.96 and 1, respectively.

Consider `NCCCOCCCCOCCCNCc1cccs1`, for which the fold change (FC) turned out to be 0.87 in test [1] and 0.71 in test [2].

Take `c1ccc(CNCCCCCCCCCCCCNCc2ccccc2)cc1`: the fold change (FC) came to 0.35 in test [4] and 0.89 in test [5].

On to `NCCCNCCCCNCCCNCc1cccs1`, for which, in the test filed under Homo sapiens [7], the Ratio Ki was 9.8. Moreover, the outcome in test [6] was inactive. For the same compound, the figures for the fold change (FC) in test [4] and in test [5] were 0.6 and 1, respectively.

In the case of `NCCCCCCCCNCCCNCc1cccs1`, the fold change (FC) was 0.09 in test [1] and 0.38 in test [2].
